Measured values: a melting point compilation (Tetko et al.; mined from patent text by program, amines drawn as free bases though some values may be those of a salt)

| SMILES | melting point [°C] |
| --- | --- |
| O=[N+]([O-])c1cc(S(=O)(=O)N2CCC(O)C2)sc1Cl (racemic) | 96 |
| COc1ccc(C(O)CN2CCN(C(c3ccccc3)c3ccccc3)CC2)c(OC)c1OC (centres undefined) | 128 |
| Cc1cnc(-c2ssc(=S)c2C)cn1 | 162 to 163 |
| CCCn1cnc2c1c(=O)n(CCCC(C)(O)C#CCN1CCN(C)CC1)c(=O)n2C (centres undefined) | 168 |
| O=C(c1ccccc1)c1nc(Cl)ccc1[N+](=O)[O-] | 107 |
| CCOc1cc(N)ccn1 | 88 to 89 |
| COC(=O)c1c(-c2ccc(C#N)cc2)cn(-c2ccc(Br)cc2)c1C(=O)OC | 178 to 180 |
| COc1ccc(C(=O)Nc2ccccc2C(=O)NCCCC(=O)O)cc1 | 172 to 174 |
| CC(C)(C)c1cc(C(c2cc(C(C)(C)C)c(O)c(C(C)(C)C)c2)c2ccco2)cc(C(C)(C)C)c1O | 158 to 159 |
| CC(=O)OC1CSC(Oc2cncc(-c3ccc(F)cc3Cl)c2)C(OC(C)=O)C1OC(C)=O (centres undefined) | 115 |
| CCOC(=O)C(=O)Nc1c([N+](=O)[O-])cc(Br)c2cccnc12 | 213 to 215 |
| COc1ccc2cc([C@H](C)C(=O)OCC(=O)N(C)CCO[N+](=O)[O-])ccc2c1 | 80 to 81 |
| COc1nc2ncccc2c2nc(S(=O)(=O)Cl)nn12 | 172 to 174 |
| CC(C)n1nc(O)nc1Cl | 100 to 104 |
| CC(C)(C)OC(=O)COc1coc(CO)cc1=O | 90 to 92 |
| C=C(c1cc(F)ccc1OCc1ccc(Cl)cc1Cl)n1ccnc1 | 118 to 120 |
| CS(=O)(=O)N(N(CCCl)S(=O)(=O)c1ccccc1)S(C)(=O)=O | 114 to 115 |
| N#CCN1C(=O)COc2cc(F)c([N+](=O)[O-])cc21 | 196 to 200 |
| CNC(=C[N+](=O)[O-])NCC(O)COc1cccc(CN2CCCCC2)c1 (centres undefined) | 45 to 50 |
| O=S1(=O)N=CN(C2CC2)c2ccc(C(F)(F)F)cc21 | 160 to 162 |
| CC(=O)CCc1ccc2c(c1)C(=O)c1ccccc1-2 | 75 to 77 |
| Cc1nn(-c2cc(N)c(Cl)cc2F)c(Cl)c1Br | 113 to 116 |
| CSc1ccc(C(=O)NC[C@H]2O[C@@H]2c2ccccc2)cc1 (racemic) | 110 |
| CCOC(=O)N[C@@H]1CCc2ccccc2[C@H]1Cl (relative stereo) | 124 to 126 |
| COc1ccc(C(=O)c2ccccc2-c2ccc(C#N)cc2)cc1 | 121 to 123 |

| SMILES | melting point [°C] |
| --- | --- |
| O=C(Nc1ccc2c(c1)CCC2)c1ccccc1C(c1ccc(O)cc1)c1ccc(O)cc1 | 220 to 223 |
| N#CCNCCNCC#N | 41 to 42 |
| Oc1ccc(-c2nn(-c3cccc(F)c3)c3cc(O)ccc23)c(O)c1 | > 200 |
| O=c1c2ccccc2sn1CCN1CC=C(c2ccccc2)CC1 | 90 to 92 |
| CC(C)C1(C)N=C(c2nc3c(cc2C(=O)O)CCO3)NC1=O (centres undefined) | 189 to 192 |
| CC(Oc1ccc(C2CCOCC2)cc1)C(=O)O (centres undefined) | 156 |
| COc1ccc(-c2cc(Cc3ccc(OC)c(OC4CCCC4)c3)cn2-c2ccc(S(N)(=O)=O)cc2)cc1 | 81 to 84 |
| CN1C(=O)CCC2(C)c3ccc(C(=O)c4ccccc4Cl)cc3CCC12 (centres undefined) | 105 to 115 |
| N#Cc1ccc2c(c1)c(C1CCC(=O)CC1)cn2Cc1ccccc1 | 115 to 126 |
| O=C(NC1N=C(c2ccccc2F)c2ccccc2NC1=O)c1cc2ccccc2[nH]1 (racemic) | 290 to 291 |
| CCCCCc1cc(O)c2c(c1)OC(C)(C)[C@@H]1CCC(=O)C[C@H]21 (relative stereo) | 120 to 134 |
| CC(N)c1ccc(C(=O)O)cc1 (centres undefined) | > 300 |
| COCCOCONC(=O)c1nc(-c2ccc(Cl)c(OC)c2F)cc(N)c1Cl | 126 to 128 |
| Nc1cc(C(=O)O)ccc1C(F)(F)F | 175 to 177 |
| CN(C)CCCN=C1CC(c2ccc(C(F)(F)F)cc2)Cc2c1c(=O)c1cc(Cl)ccc1n2O (centres undefined) | 130 to 135 |
| CNC(=O)c1oc(C(C)(C)C)cc1NC(=O)Nc1ccc(C)cc1 | 190 to 193 |
| Cc1oc2c(C)c(C)c(NC(=O)c3ccc(F)cc3)c(C)c2c1-c1ccc(C(C)C)cc1 | 242 to 245 |
| CCCCN(CCCC)c1ccc(C=Cc2ccc(C(C#N)=C(C#N)C#N)s2)c(OC)c1 | 189 to 192 |
| CC(C)c1ccc(N2COCN(C)C2=O)cc1F | 45 |
| COc1ccc(-n2nc(C(=O)CCCO[N+](=O)[O-])cc2-c2ccc(S(C)(=O)=O)cc2)cc1 | 132 to 134 |
| CCC(=O)OCC1(C)OCC2(CO1)COC(C)(COC(=O)CC)OC2 (centres undefined) | 55 to 56 |
| O=C(NC1CCCc2sccc21)N1CCOCC1 (centres undefined) | 152 to 154 |
| c1ccc2sc(-c3ccnc(Nc4ccc5c(c4)OCCO5)c3)cc2c1 | 154 |
| Clc1cccc(CNc2ncnc3nc[nH]c23)c1 | 252 |
